Assays:
[1] = species: Rattus norvegicus; assay: Selectivity ratio (Ki value towards kappa receptor compared to that of delta receptor).
[2] = biological target: T1, Kappa-type opioid receptor (Cavia porcellus, UniProt P41144); assay: Binding affinity at kappa opioid receptor 1 in guinea pig brain by [3H]U-69593 displacement.
[3] = biological target: Mu-type opioid receptor (Rattus norvegicus, UniProt P33535); assay: Binding affinity at mu opioid receptor 1 in rat brain membrane by [3H]DAMGO displacement.; assay type: cell membranes
[4] = biological target: T2, Delta-type opioid receptor (Rattus norvegicus, UniProt P33533); assay: Binding affinity at delta opioid receptor 1 in rat brain membrane by [3H]DADLE displacement.; assay type: cell membranes
[5] = biological target: Opioid receptors; mu & delta (Rattus norvegicus) (UniProt P33533+P33535); assay: Selectivity ratio (Ki value towards mu receptor compared to that of delta receptor).; assay type: protein assay
[6] = biological target: T1, Kappa-type opioid receptor; assay: The ability of compound to inhibit [35S][…] binding in guinea pig caudate stimulated by U69,593 (Opioid receptor kappa 1) antagonist; assay type: functional
[7] = biological target: Mu-type opioid receptor (Cavia porcellus, UniProt P97266); assay: The ability of compound to inhibit [35S][…] binding in guinea pig caudate stimulated by DAMGO (Opioid receptor mu 1) antagonist; assay type: functional
[8] = biological target: T2, Delta-type opioid receptor; assay: Opioid receptor delta 1 binding affinity was determined by inhibition of binding of [3H]DADLE to rat brain membrane

T2 sequence (P33533 whole entry): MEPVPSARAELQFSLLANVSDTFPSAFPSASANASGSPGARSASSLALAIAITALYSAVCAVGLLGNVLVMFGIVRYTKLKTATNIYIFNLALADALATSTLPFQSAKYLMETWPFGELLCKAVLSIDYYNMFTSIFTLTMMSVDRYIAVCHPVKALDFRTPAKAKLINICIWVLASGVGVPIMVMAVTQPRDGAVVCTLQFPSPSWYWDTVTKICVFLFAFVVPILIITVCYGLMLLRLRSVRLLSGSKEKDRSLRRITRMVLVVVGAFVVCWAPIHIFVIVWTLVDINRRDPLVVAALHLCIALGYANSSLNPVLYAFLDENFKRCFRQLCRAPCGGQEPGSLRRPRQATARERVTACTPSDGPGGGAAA
Opioid receptors; mu & delta (Rattus norvegicus), sequence (P33533 whole entry, looked up): as the sequence (P33533 whole entry) above
Opioid receptors; mu & delta (Rattus norvegicus), sequence (P33535 whole entry, looked up): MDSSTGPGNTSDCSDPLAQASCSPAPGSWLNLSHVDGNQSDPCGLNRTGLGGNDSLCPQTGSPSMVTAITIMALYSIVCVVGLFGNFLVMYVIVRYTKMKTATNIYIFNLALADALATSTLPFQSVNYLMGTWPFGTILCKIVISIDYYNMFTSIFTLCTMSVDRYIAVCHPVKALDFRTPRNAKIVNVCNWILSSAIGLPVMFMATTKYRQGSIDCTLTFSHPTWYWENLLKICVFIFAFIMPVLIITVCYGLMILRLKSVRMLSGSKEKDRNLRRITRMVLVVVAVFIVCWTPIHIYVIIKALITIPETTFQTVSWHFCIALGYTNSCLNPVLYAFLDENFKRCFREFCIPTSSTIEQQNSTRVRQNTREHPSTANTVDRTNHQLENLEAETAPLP
Mu-type opioid receptor (Rattus norvegicus, UniProt P33535), sequence (P33535 whole entry): as the sequence (P33535 whole entry, looked up) above
T1 sequence (P41144 whole entry): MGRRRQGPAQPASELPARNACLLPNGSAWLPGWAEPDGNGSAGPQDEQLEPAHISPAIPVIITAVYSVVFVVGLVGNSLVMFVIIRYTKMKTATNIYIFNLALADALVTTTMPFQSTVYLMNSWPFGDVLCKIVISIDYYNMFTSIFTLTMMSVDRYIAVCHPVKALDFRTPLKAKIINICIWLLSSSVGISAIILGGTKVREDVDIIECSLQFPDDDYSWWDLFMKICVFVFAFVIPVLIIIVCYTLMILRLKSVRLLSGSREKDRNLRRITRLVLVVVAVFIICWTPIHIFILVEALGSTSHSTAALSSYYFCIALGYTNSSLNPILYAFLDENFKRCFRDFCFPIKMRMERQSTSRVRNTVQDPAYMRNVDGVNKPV
Mu-type opioid receptor (Cavia porcellus, UniProt P97266), sequence (P97266 whole entry): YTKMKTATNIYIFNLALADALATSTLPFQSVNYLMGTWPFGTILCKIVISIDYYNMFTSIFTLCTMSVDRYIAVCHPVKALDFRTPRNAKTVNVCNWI

Compound | Selectivity [1] | Ki [2] [nM] | Ki [3] [nM] | Ki [4] [nM] | Selectivity [5] | Ki [6] [nM] | Ki [7] [nM] | Ki [8] [nM]
CCCO[C@@]12Cc3c([nH]c4ccccc34)[C@]3(C)Oc4c(O)ccc5c4[C@@]31CCN(C)[C@@H]2C5 | 105 | 556 | 30 | 5.3 | 5.7 | – | – | –
CCO[C@@]12Cc3c(oc4ccccc34)[C@@H]3Oc4c(O)ccc5c4[C@@]31CCN(CC1CC1)[C@@H]2C5 | 80 | 94 | 185 | 1.18 | 157 | > 10000 | > 10000 | –
CCCN1CC[C@]23c4c5ccc(O)c4O[C@H]2c2c(c4ccccc4n2C)C[C@@]3(OC)[C@H]1C5 | 10 | 115 | 106 | 11.5 | 9.2 | – | – | –
C=CCO[C@@]12Cc3c(n(CC=C)c4ccccc34)[C@@H]3Oc4c(O)ccc5c4[C@@]31CCN(CC=C)[C@@H]2C5 | 105 | 763 | 1000 | 7.3 | 137 | – | – | –
C=CCN1CC[C@]23c4c5ccc(O)c4O[C@H]2c2c(c4ccccc4n2Cc2ccccc2Cl)C[C@@]3(OCc2ccccc2Cl)[C@H]1C5 | 4800 | 721000 | 1230 | 151 | 8.2 | – | – | –
CO[C@@]12Cc3c([nH]c4ccccc34)[C@]3(C)Oc4c(O)ccc5c4[C@@]31CCN(C)[C@@H]2C5 | 387 | 1530 | 58 | 3.95 | 15 | – | – | –
CO[C@@]12Cc3c([nH]c4ccccc34)[C@@H]3Oc4c(O)ccc5c4[C@@]31CCN(CC1CCCCC1)[C@@H]2C5 | 8.8 | 3250 | 14000 | 370 | 38 | – | – | –
CCCO[C@@]12Cc3c(n(CCC)c4ccccc34)[C@@H]3Oc4c(O)ccc5c4[C@@]31CCN(CC1CC1)[C@@H]2C5 | 2.4 | 3.1 | 14.8 | 1.28 | 12 | – | – | –
Oc1ccc2c3c1O[C@H]1c4[nH]c5ccccc5c4C[C@@]4(O)[C@@H](C2)N(CC2CC2)CC[C@]314 [NALTRINDOLE] | – | 15.8 | – | 0.81 | – | – | – | –
CCO[C@@]12Cc3c([nH]c4ccccc34)[C@]3(C)Oc4c(O)ccc5c4[C@@]31CCN(C)[C@@H]2C5 | 186 | 725 | 515 | 3.9 | 132 | – | – | –
C=CCN1CC[C@]23c4c5ccc(O)c4O[C@H]2c2[nH]c4ccccc4c2C[C@@]3(OC)[C@H]1C5 | 61 | 233 | 869 | 3.8 | 229 | – | – | –
CCO[C@@]12Cc3c([nH]c4ccccc34)[C@]3(C)Oc4c(O)ccc5c4[C@@]31CCN(CC1CCC1)[C@@H]2C5 | 30 | 378 | 409 | 12.6 | 32 | – | – | –
CCO[C@@]12Cc3c([nH]c4ccccc34)[C@]3(C)Oc4c(O)ccc5c4C31CCN(CC1CC1)[C@@H]2C5 | 30 | 134 | 340 | 4.4 | 77 | > 10000 | > 10000 | –
C=CCN1CC[C@]23c4c5ccc(O)c4O[C@H]2c2[nH]c4ccccc4c2C[C@@]3(OCC)[C@H]1C5 | 134 | 349 | 1370 | 2.6 | 526 | > 10000 | > 10000 | –
C=CCN1CC[C@]23c4c5ccc(O)c4O[C@H]2c2c(c4ccccc4n2C)C[C@@]3(OC)[C@H]1C5 | – | 149 | 731 | 1.97 | – | – | – | –
C=CCN1CC[C@]23c4c5ccc(O)c4O[C@H]2c2oc4ccccc4c2C[C@@]3(OCC)[C@H]1C5 | 57 | 68 | 22.8 | 1.2 | 19 | – | – | –
CC(C)CCO[C@@]12Cc3c([nH]c4ccccc34)[C@]3(C)Oc4c(O)ccc5c4[C@@]31CCN(C)[C@@H]2C5 | 99 | 1260 | 238 | 12.8 | 19 | – | – | –
CN1CC[C@]23c4c5ccc(O)c4O[C@H]2c2[nH]c4ccccc4c2C[C@@]3(O)[C@H]1C5 [OXYMORPHINDOLE] | 198 | 395 | 171 | – | 86 | – | – | 2
CCCO[C@@]12Cc3c([nH]c4ccccc34)[C@]3(C)Oc4c(O)ccc5c4[C@@]31CCN(CC1CC1)[C@@H]2C5 | 95 | 504 | 555 | 5.3 | 105 | – | – | –
